The test system of one assay is mouse tail arteries. Kind of assay: Agonist-induced vasoconstriction in isolated mouse tail artery, with influence of cold. The settings on record: for constriction of proximal and distal segments of mouse tail arteries: 10^−9 to 3×10^−7M, 37° C.; for influence of cold on the constrictor response to the agonist: distal segments, 28° C. versus 37° C. The class given is cell-based.

Assay [1] has as its system control and SSc arterioles. Put plainly: Agonist-induced vasoconstriction in human dermal arterioles from control and SSc subjects. It counts as cell-based. The settings on record: for constriction: 1 μM of the agonist; for Emax: Homo sapiens. The text has this: Skin biopsies (6 mm punch) were obtained from the same location on the medial aspect on the upper arm of patients and control subjects. Eleven patients with diffuse cutaneous SSc were studied: nine female and two male. Their average age was 49 years old (range 33 to 69) and they had SSc for an average of 4 years (range 1 to 9 years from first physician diagnosis of SSc). SSc patients were recruited from the Johns Hopkins and University of Maryland Scleroderma Center. All patients met the American College of Rheumatology criteria for a diagnosis of SSc. Biopsy of the skin was performed in the upper arm in an area considered to have normal skin thickness determined by clinical palpation (clinically-uninvolved skin). Patients with overlap syndromes (e.g. lupus) were excluded. Patient medications varied between individuals: anti-inflammatory /immunosuppressant, 4 patients on prednisone, 1 on methotrexate, 1 on cyclophosphamide, and 1 on D-penicillamine; gastrointestinal, 5 on omeprazole, 3 on cisapride, 2 on ranitidine, 1 on lansoprazole; angiotensin converting enzyme inhibitors, 3 on enalapril, 1 on lisinopril; angiotensin receptor antagonists, 1 on losartin, 1 on valsartin; calcium antagonists, 2 on nifedipine, 1 on verapamil, 1 on amlodipine, 1 on diltiazem; α1-adrenergic receptor antagonists, 1 on terazosin. Vasoconstrictor responses to the α1-adrenergic receptor (α1-AR) agonist, phenylephrine, were not included for the patient receiving terazosin. Eight normal subjects were analyzed: six female and two males with an average age of 50 years old (range 38 to 62). All patients and volunteers gave informed consent and the study was approved by the Johns Hopkins University human subjects IRB committee.
Arterioles were dissected from the deep dermal plexus of the biopsies and any side branches tied. […] The arterioles were cannulated with glass micropipettes and placed in a microvessel chamber as previously describe. The arterioles were maintained in no-flow state at a constant transmural pressure (PTM)of 40 mmHg. The chamber was superfused with buffer solution (37° C., pH 7.4, gassed with 16% O2-5% CO2-balance N2) and placed on stage of an inverted microscope for continuous monitoring of internal diameter using a video camera and video dimension analyzer.
Vasoconstriction was assessed in response to: i) KCl (15 to 60 mM), ii) the selective α1-AR agonist, phenylephrine (0.01 to 1 μM) (SIGMA, St Louis, Mo.), or iii) the selective α2-AR agonist, UK 14,304 (1 to 100 nM) (brimonidine, 5-bromo-N-(4,5-dihydro-1H-imidazol-2-yl)-6-quinoxalinamine, RBI, Natick, Mass.). Responses to UK 14,304 were also evaluated following denudation of the endothelium, achieved by carefully placing a wire (70μdiameter) through the vessel lumen. Endothelium-removal was confirmed by histology and by loss of response to the endothelial stimuli acetylcholine or bradykinin.
Responses were expressed as a percentage change in baseline diameter. Data is expressed as means±SEM for n number of experiments, where n equals the number of subjects from which blood vessels were studied. Concentration-effect curves were analyzed by comparing: i) maximal responses (vasoconstriction or dilatation), and ii) the area under the curve (AUC). Statistical evaluation of the data was performed using paired or unpaired t-tests. Responses were considered to be statistically different when P was less than 0.05.

The target in a further assay is Mouse Tail Artery. Kind of assay: Antagonism of UK 14,304-induced vasoconstriction in isolated pressurised distal mouse tail artery. The class given is cell-based. Conditions: for Kd: versus UK 14,304, distal tail artery; for effect on vasoconstrictor response to UK 14,304: cold (28° C.), ARC 0239 50 nM, MK912 3×10^−10M; for effect on vasoconstrictor response to UK 14,304 / effect on vasoconstriction to the α2-AR agonist UK 14,304: BRL 44408 100 and 1000 nM; for effect on vasoconstriction to the α2-AR agonist UK 14,304: warm temperatures (37° C.), ARC 239 50 nM, MK 912 0.3 nM; for −log KD: n=4. The text has this: Male mice (C57BL6) were euthanized by CO2 asphyxiation. Proximal and/or distal segments of tail artery were then rapidly removed and placed in cold Krebs-Ringer bicarbonate solution (in mM): 118.3 NaCl, 4.7 KCl, 1.2 MgSO4, 1.2 KH2PO4, 2.5 CaCl2, 25.0 NaHCO3, 11. glucose (control solution). The small arteries were cannulated at both ends with glass micropipettes, secured using 12-0 nylon monofilament suture and placed in a microvascuiar chamber (Living Systems, Burlington, Vt.). The arteries were maintained at a constant transmural pressure of 60 mmHg in the absence of flow. The chamber was superfused with control solution and maintained at 37° C., pH 7.4, and gassed with 16% O2-5% CO2-balance N2. The chamber was placed on the stage of an inverted microscope (X20, Nikon TMS-F, Japan) connected to a video camera (Panasonic, CCTV camera, Japan). The vessel image was projected onto a video monitor and the internal diameter continuously determined by a video dimension analyzer (Living Systems Instrumentation, Burlington Vt.) and monitored using a BIOPAC (Santa Barbara, Calif.) data acquisition system (Gateway Dimensions Pentium Computer).
Small arteries were allowed to equilibrate for 30-40 min at a transmural pressure (PTM) of 60 mmHg before addition of α1 and α2-AR agonists and antagonists. Concentration-effect curves to the selective α1-AR agonist, phenylephrine, or the selective α2-AR agonist, UK 14,304 (brimonidine, 5-bromo-N-(4,5-dihydro-1H-imidazol-2-yl)-6-quinoxalinamine) were generated by increasing the concentration of the agonists in half-log increments, once the constriction to the previous concentration had stabilized. Following completion of the concentration-effect curve, the influence of the agonists was terminated by repeatedly exchanging the buffer solution and allowing the artery to return to its stable baseline level.
To evaluate the effect of selective α2-AR antagonists on vasoconstriction, concentration-effect curves to UK 14,304 were determined under control conditions and in the presence of the selective α2A-AR antagonist, BRL 44408 (100 and 1000 nM), the selective α2B-AR antagonist ARC 0239 (50 nM) or the selective α2C-AR antagonist MK 912 (0.3 nM) (Table 1). When these receptor antagonists were used, the preparations were incubated for 30 min with the drugs prior to, and also during, exposure of the arteries to the agonists. When analyzing the influence of cold on α-AR responsiveness, the temperature of the superfusate was decreased to 28° C. for 30 min prior to commencing a concentration effect curve to the constrictor agonists. This provides sufficient time for the effect of cold on adrenergic reactivity to stabilize.
Vasomotor responses were expressed as a percentage change in internal diameter (ID) prior to administrating the agent. Because of the phasic behavior of the vasomotion in distal. tail arteries, the signal was electronically averaged (BIOPAC software, smoothing factor of 2000) in order to obtain diameter measurements. Functional data is expressed as means±SEM for n number of experiments, where n equals the number of animals from which blood vessels were studied. Antagonist dissociation constants (KD) were determined either from Arunlakshana and Schild plots or according to the formula: KD=[Ant]/(CR-1), where [Ant] is the concentration of antagonist, and CR the ratio of agonist-concentrations producing equal responses in the presence and absence of the antagonist. […] Statistical evaluation of the data was performed by Student's t-test for either paired or unpaired observations. When more than two means were compared, analysis of variance was used. If a significant F value was found, Scheffe's test for multiple comparisons was employed to identify differences among groups. Values were considered to be statistically different when P was less than 0.05.

In another assay the target is T1, α-2A (Homo sapiens, UniProt P08913).
T1 sequence (P08913 1-465): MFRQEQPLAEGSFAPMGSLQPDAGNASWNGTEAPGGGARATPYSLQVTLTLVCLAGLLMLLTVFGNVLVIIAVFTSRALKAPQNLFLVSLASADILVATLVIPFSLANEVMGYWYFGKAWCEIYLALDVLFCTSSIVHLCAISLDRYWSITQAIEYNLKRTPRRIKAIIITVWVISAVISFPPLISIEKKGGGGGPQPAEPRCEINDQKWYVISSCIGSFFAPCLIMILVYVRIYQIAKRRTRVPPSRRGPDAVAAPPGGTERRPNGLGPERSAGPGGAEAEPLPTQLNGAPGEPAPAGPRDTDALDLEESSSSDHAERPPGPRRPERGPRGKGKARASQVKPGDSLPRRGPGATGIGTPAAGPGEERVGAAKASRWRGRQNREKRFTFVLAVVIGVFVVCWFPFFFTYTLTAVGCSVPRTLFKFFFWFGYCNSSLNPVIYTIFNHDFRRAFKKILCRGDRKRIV
The settings on record: cited from earlier work.

A further assay concerns the target T2, α-2B (Homo sapiens, UniProt P18089).
T2 sequence (P18089 1-450): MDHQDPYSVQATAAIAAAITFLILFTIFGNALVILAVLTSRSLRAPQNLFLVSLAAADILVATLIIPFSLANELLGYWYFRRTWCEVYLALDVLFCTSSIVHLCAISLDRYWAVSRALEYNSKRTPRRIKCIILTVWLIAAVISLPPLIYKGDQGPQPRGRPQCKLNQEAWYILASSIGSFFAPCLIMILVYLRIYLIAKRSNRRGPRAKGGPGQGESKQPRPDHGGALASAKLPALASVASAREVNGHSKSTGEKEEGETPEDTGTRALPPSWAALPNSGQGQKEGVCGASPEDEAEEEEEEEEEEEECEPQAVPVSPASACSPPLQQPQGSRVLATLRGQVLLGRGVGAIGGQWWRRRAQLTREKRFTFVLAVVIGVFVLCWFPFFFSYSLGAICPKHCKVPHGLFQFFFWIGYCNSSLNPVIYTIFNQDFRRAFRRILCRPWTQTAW
Conditions: cited from earlier work.

Another assay concerns the target T3, α-2C (Homo sapiens, UniProt P18825).
T3 sequence (P18825 1-462): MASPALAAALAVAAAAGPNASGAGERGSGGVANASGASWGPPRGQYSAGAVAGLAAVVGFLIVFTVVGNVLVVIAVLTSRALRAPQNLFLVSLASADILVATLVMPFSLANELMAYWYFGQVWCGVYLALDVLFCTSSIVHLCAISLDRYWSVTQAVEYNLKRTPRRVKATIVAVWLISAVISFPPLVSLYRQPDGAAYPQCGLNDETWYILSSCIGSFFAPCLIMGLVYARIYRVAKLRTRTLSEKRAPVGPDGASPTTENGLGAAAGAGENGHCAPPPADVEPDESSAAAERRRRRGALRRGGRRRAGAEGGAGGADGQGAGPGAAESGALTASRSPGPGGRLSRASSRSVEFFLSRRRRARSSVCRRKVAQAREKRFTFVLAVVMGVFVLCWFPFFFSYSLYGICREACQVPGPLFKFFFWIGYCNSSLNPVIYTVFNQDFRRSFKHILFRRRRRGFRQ
Conditions: cited from earlier work.

[2] abbreviates: 28° C. (cold), read-out: KD Mouse Tail Artery 28° C.
Setting [3] is: 37° C. (warm), read-out: KD Mouse Tail Artery 37° C.

In general, Kd refers to the constant that tells how readily two partners part at equilibrium.

Where two headings read alike, the source gives them in different places.

Experimental for mouse tail arteries: Small arteries were allowed to equilibrate for 30-40 min at a transmural pressure (PTM) of 60 mmHg before addition of α1 and α2-AR agonists and antagonists. […] Following completion of the concentration-effect curve, the influence of the agonists was terminated by repeatedly exchanging the buffer solution and allowing the artery to return to its stable baseline level.
Vasomotor responses were expressed as a percentage change in internal diameter (ID) prior to administrating the agent. Because of the phasic behavior of the vasomotion in distal. tail arteries, the signal was electronically averaged (BIOPAC software, smoothing factor of 2000) in order to obtain diameter measurements. Functional data is expressed as means±SEM for n number of experiments, where n equals the number of animals from which blood vessels were studied. Antagonist dissociation constants (KD) were determined either from Arunlakshana and Schild plots or according to the formula: KD=[Ant]/(CR-1), where [Ant] is the concentration of antagonist, and CR the ratio of agonist-concentrations producing equal responses in the presence and absence of the antagonist. […] Statistical evaluation of the data was performed by Student's t-test for either paired or unpaired observations. […]

As to `CNC[C@H](O)c1cccc(O)c1` [phenylephrine], in the assay with mouse tail arteries, the “constriction of proximal and distal segments of mouse tail arteries” value is on record as “caused concentration-dependent constriction”; the “influence of cold on the constrictor response to the agonist” value is “did not affect”. Also, the constriction in assay [1] (SSc arterioles) stood at 45±7%. The constriction in assay [1] (control arterioles) was determined as 45±8%.
Turning to `COc1ccccc1N1CCN(CCN2C(=O)c3ccccc3C(C)(C)C2=O)CC1` [ARC 239], the Kd is more than 50 nM on Mouse Tail Artery (setting [2]); more than 50 nM at Mouse Tail Artery (setting [3]); 256 nM at α-2A; 4.6 nM at α-2B; 51 nM at α-2C. For the same compound, the “expected shift in concentration-effect curves generated by α2B-AR stimulation” value in the assay with Mouse Tail Artery (based on the Table 1 KD, antagonist at 50 nM) is approximately 10 fold. Moreover, the “effect on vasoconstrictor response to UK 14,304” value in the assay on Mouse Tail Artery is given as “not inhibited”. Moreover, the “effect on vasoconstriction to the α2-AR agonist UK 14,304” value in the assay with Mouse Tail Artery is “not inhibited”.
Regarding `Brc1c(NC2=NCCN2)ccc2nccnc12` [UK 14,304, 5-bromo-N-(4,5-dihydro-1H-imidazol-2-yl)-6-quinoxalinamine], the “constriction of proximal and distal segments of mouse tail arteries” value in the assay with mouse tail arteries is on record as “caused concentration-dependent constriction”. Besides, the “influence of cold on the constrictor response to the agonist” value with mouse tail arteries was “dramatically and reversibly increased”. In addition, the Emax came out at 67 ± 4% in assay [1] (SSc arterioles with endothelium, 1-100 nM, read-out: maximal response to the agonist (constriction)); 25 ± 5% in assay [1] (control arterioles with endothelium, 1-100 nM, read-out: maximal response to the agonist (constriction)); 67 ± 10% in assay [1] (endothelium-denuded SSc arterioles, read-out: maximal response (constriction)); 25 ± 7% in assay [1] (endothelium-denuded control arterioles, read-out: maximal response (constriction)).
Turning to `CC1c2ccccc2CN1CC1=NCCN1` (stereo not shown) [BRL 44408], the “−log KD” value on Mouse Tail Artery (28° C. (cold)) is listed as 7.54 ± 0.10; at Mouse Tail Artery (37° C., Arunlakshana and Schild plot), 7.69±0.13. For the same compound, the Kd at Mouse Tail Artery (setting [2]) is 29 nM; on Mouse Tail Artery (setting [3]) it was 20 nM; at α-2A, 13 nM; at α-2B it was 174 nM; on α-2C, 187 nM. Besides, the “effect on cold-induced amplification of the α2-AR response” value in the assay on Mouse Tail Artery (28° C. versus 37° C., UK 14,304) is “did not reduce”. For the same compound, in the assay with Mouse Tail Artery, the “effect on vasoconstrictor response to UK 14,304” value was “reduced”. Also, the “effect on vasoconstriction to the α2-AR agonist UK 14,304” value in the assay with Mouse Tail Artery is reported as “inhibited”.
